Results published in paper PMC6874530, “Structural analysis identifies an escape route from the adverse lipogenic effects of liver X receptor ligands” (Communications Biology, 2019).
Like-named read-outs stand apart in the source and are kept apart here.

Experiments:
[1] = biological target: T1, LXRα LBD (Homo sapiens, UniProt Q13133); experiment: biochemical
T1 sequence (Q13133 200-447): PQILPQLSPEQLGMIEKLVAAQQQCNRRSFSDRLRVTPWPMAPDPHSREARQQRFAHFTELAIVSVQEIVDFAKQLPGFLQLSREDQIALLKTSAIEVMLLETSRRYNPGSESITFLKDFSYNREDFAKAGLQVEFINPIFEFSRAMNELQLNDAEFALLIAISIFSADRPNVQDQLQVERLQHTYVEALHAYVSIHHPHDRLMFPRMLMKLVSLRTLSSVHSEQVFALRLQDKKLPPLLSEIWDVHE
From the text: The compounds were run in triplicate (binding assay) or in quadruplicate (transactivation assay). Standard deviations are indicated for individual experiments run more than once.

[2] = biological target: T2, LXRβ (Homo sapiens, UniProt P55055); experiment: Gal4 one hybrid reporter gene (transactivation) assay in U2OS cells, LXRβ; type: cell-based; details: for Potency-based LXRβ selectivity over LXRα: Gal4 reporter gene assays; for Emax: U2OS, 40 h, read-out: LXRβ transactivation Agonist efficacy, %
T2 construct: expression vectors pSG5-Gal4-LXRα LBD or pSG5-Gal4-LXRβ LBD; expressed in transfected cells; host or cells: U2OS osteosarcoma cells
T2 sequence (P55055 222-460 limits assumed): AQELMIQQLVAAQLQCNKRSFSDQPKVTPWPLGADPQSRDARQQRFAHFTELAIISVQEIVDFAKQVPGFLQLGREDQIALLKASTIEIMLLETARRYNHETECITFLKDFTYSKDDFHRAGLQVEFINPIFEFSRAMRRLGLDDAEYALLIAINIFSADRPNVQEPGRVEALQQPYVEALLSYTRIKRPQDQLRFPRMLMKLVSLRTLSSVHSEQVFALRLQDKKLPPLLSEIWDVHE
Method: Transactivation assays were performed in U2OS osteosarcoma cells (ATCC, USA). […] Ligands were added at ten different concentrations 2 h post transfection and the luciferase activity was measured after 40 h.

[3] = biological target: T1, LXRα LBD; experiment: differential HDX-MS of LXRα LBD (apo vs ligand-bound); set-up: Human his-tagged LXRα LBD (200-447); His tag; made in house; host or cells: Escherichia coli BL21(DE3); details: for stabilization of LXRα H12: HDX-MS; for protection of LXRα H3 from deuterium exchange: after 600 s of deuterium exchange
Method: (§1) Prior to the deuterium incorporation experiments, 10 µM apo LXR was incubated with 10× excess of ligand or equal volume of DMSO for 30 min at room temperature. In the experiments with cofactors, 15× excess of the SRC1 coactivator peptide and the NCOR1 corepressor peptide were added to the ligand-bound or apo proteins, respectively, and incubated for 30 min at room temperature. […] A fully deuterated sample was generated by incubating protein with 4 M guanidine-HCl in D2O for 30 min at 45 °C. Exchange reactions were performed with a CTC PAL sample handling robot (LEAP Technologies). Labeling times were 30, 60, 180, 600, and 1800 s in the kinetics experiments. Differential HDX of a complete compound selection was measured after 30 and 600 s of labeling time points. Reactions were conducted by incubating 4 µl of LXR with 50 µl of D2O buffer (containing 25 mM Tris-HCl (pD 7.6), 50 mM NaCl, 10% glycerol, and 1 mM TCEP). The exchange reaction was stopped by the addition of 50 µl of quench solution (3 M urea, 0.1% TFA) followed by immediate injection into a Enzymate BEH Pepsin 2.1 × 30 mm Column (Waters, UK) for protein digestion (2 min at 24 °C). Peptic digest was further injected on a Waters nanoACQUITY UPLC System where peptides were first desalted by trapping for 3 min on a VanGuard Pre-Column Acquity UPLC BEH C18 (1.7 μm; 2.1 × 5 mm), and then eluted over a 6-min 5–40% (vol/vol) acetonitrile (containing 0.1% formic acid) gradient into a Waters Synapt G2-Si mass spectrometer. Peptide separation was conducted at 0.1 °C. All exchange reactions were performed in triplicates.
(§2) Peptides from three samples of non-deuterated LXR were identified by using the ProteinLynx Global Server (PLGS Waters, UK). Peptides with an intensity of over 5000, a mass error < 5 ppm, and present in at least two of the three data acquisitions were pooled and imported into the DynamX data analysis software (Waters, UK). After a first round of automated spectral processing by using DynamX, each peptide was inspected manually for suitability for further analysis.
(§3) For pairwise comparison, MEMHDX software was used to identify statistically significant changes of deuterium uptake. For all peptides, a value of relative exchange per amino acid was corrected to back exchange. The mean deuteration level per amino acid was calculated by using Matlab (Mathworks)[69] and subsequently mapped onto the crystal structures with PyMOL (Schrodinger LLC). For structural representation, loop modeling with MOE (Chemical Computing Group Inc.) was applied on 2ACL.pdb file for LXRα LBD, and 1PQC.pdb for LXRβ LBD.

[4] = biological target: T3, LXRα/NCOR1 (Homo sapiens, UniProt Q13133); experiment: SPR cofactor recruitment, LXRα LBD binding to immobilized NCOR1 corepressor peptide
T3 construct: Human his-tagged LXRα LBD (200-447); His tag; made in house; host or cells: Escherichia coli BL21(DE3)
T3 sequence (Q13133 200-447): T1 sequence (Q13133 200-447)
T3 sequence (O75376 with tags, fused parts or gaps partner limits assumed): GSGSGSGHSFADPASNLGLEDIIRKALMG
Method: The peptides carried an N-terminal biotin for surface immobilization on a Xantec NID200M Sensor Chip (NTA-derivatized carboxymethyldextran hydrogel, XanTec bioanalytics GmbH) preloaded with Ni^2+. […] LXRα and LXRβ LBD proteins were serially diluted in SPR running buffer (10 mM HEPES, 150 mM NaCl, and 0.05% Tween 20, pH 7.4) to a broad range of concentrations (0.02–10 µM) and equilibrated with tested compound (50 μM) prior to the sample injection over a modified biosensor surface. LXR-ligand complexes were injected in quick succession for 120 s over immobilized cofactor peptides and reference surfaces along with blank samples followed by 900 s of dissociation. The binding level at equilibrium was monitored for all samples, including the reference sample that contained DMSO at equal amount as tested compounds. All data were normalized to this reference sample in order to quantify the effects on peptide binding without bias by receptor instability. The surface was regenerated with 0.5% (w/v) SDS after each injection. Binding responses in the steady-state region of the sensorgrams were plotted against LXR LBD concentration to determine the overall equilibrium-binding affinity by fitting the data to nonlinear regression (Prism 8; GraphPad).

[5] = biological target: T4, LXRβ LBD (Homo sapiens, UniProt P55055); experiment: differential HDX-MS of LXRβ LBD (apo vs ligand-bound); set-up: human his-tagged LXRβ LBD (216-461); His tag; made in house; host or cells: Escherichia coli BL21(DE3); details: after 30 s of deuterium exchange
T4 sequence (P55055 215-460 limits assumed): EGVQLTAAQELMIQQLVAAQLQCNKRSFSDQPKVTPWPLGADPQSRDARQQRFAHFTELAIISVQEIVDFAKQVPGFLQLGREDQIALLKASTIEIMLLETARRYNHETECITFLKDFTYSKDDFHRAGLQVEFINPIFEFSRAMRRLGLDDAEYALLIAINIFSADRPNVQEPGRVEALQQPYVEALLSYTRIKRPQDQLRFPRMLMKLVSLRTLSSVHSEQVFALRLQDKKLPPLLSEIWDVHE
Method: as §1, §2, §3

[6] = Receptor-binding affinity pKi LXRα, value (SD, n independent experiments)
[7] = U2OS cells, Gal4-LXRβ LBD, value (SD, n), read-out: LXRβ transactivation pEC50 (converted)
[8] = maximal activation compared with a reference full agonist, value (SD, n)

Row | Compound | Ki [1, 6] [nM] | EC50 [2, 7] [nM] | Emax [2, 8] [%] | protection of LXRα H3 from deuterium exchange [3] | protection of LXRβ H11–H12 from deuterium exchange [5] | further results
1 | CC(CCCc1cccc(S(N)(=O)=O)n1)NC1=C(c2ccccc2)S(=O)(=O)N(C(C)C)C1=O (stereo not drawn) [AZ2] | 91.2 | 8.71 | 97.3 | – | – | Potency-based LXRβ selectivity over LXRα [2]: 11 fold
2 | CN(C)C(=O)c1cccc(CCCCNC2=C(c3ccccc3)S(=O)(=O)N(C(C)(C)C)C2=O)c1 [AZ1] | 91.2 | 30.9 | 76 | – | – | –
3 | CC(C)(C)N1C(=O)C(Cc2ccccc2)=C(NC2CCN(c3ncc(CC(=O)O)cc3Cl)CC2)C1=O [AZ7] | 1070 | 537 | 104 | – | – | Ki ([1]; binding affinity to LXRα): 1000 nM
4 | O=C(O)Cc1cccc(OCCCN(Cc2cccc(C(F)(F)F)c2Cl)CC(c2ccccc2)c2ccccc2)c1 [GW3965, reference compound] | 158 | 347 | – | – | – | Emax [2]: 77.1%
5 | CC(C)(O)c1cn(-c2ccc(-c3cc(F)c(CO)c(S(C)(=O)=O)c3)cc2F)c(C(C)(C)c2c(Cl)cccc2Cl)n1 [BMS-852927] | – | > 20000 | – | 60% | – | stabilization of LXRα H12 [3]: did not stabilize LXRα H12; effect on the LXRα/NCOR1 interaction [4]: enhanced the interaction; agonist activity in the Gal4 reporter gene assay, LXRβ [2]: No signal was observed
6 | CC(C)(C)N1C(=O)C(NC2CCN(c3ncc(CC(=O)O)cc3Cl)CC2)=C(c2ccccc2)S1(=O)=O [AZ4] | 355 | 148 | 110 | – | – | –
7 | O=C1C(Cc2ccccc2)=C(NCCCCc2ccccc2)C(=O)N1Cc1ccccc1 [AZ8] | 195 | 1290 | 102 | no effect | 17-25% | –
8 | CN(C)C(=O)c1cnc(N2CC[C@@H](CNC3=C(c4ccccc4)S(=O)(=O)N(C(C)(C)C)C3=O)C2)c(Cl)c1 [AZ5] | 2140 | 97.7 | 66.5 | no effect | – | stabilization of LXRα H12 [3]: did not stabilize LXRα H12; Potency-based LXRβ selectivity over LXRα [2]: 11 fold
9 | CC(C)N1C(=O)C(NC2CCN(c3ncc(CC(=O)O)cc3Cl)CC2)=C(c2ccccc2)S1(=O)=O [AZ6] | 1580 | 617 | 95.3 | – | 17-25% | –
10 | O=S(=O)(c1ccccc1)N(CC(F)(F)F)c1ccc(C(O)(C(F)(F)F)C(F)(F)F)cc1 [T0901317, reference compound] | – | – | – | – | 17-25% | LXRβ transactivation Agonist efficacy, % [2, 8]: 95.5 (6.4, n = 2) %
11 | Fc1ccc(-c2c3cccc(C(F)(F)F)c3nn2Cc2ccc(F)cc2Cl)cc1 [LXR-623, reference compound] | – | – | – | no effect | – | Ki [1]: 490 nM; EC50 [2]: 1860 nM; Emax [2]: 94.3%
12 | CC(C)N1C(=O)C(NCCCCc2cccc(S(N)(=O)=O)n2)=C(c2ccccc2)S1(=O)=O [AZ3] | 501 | 75.9 | 94.3 | – | 17-25% | Potency-based LXRβ selectivity over LXRα [2]: 9 fold; EC50 ([2]; read-out: potency in LXRβ-based assay): < 100 nM
13 | O=C(O)Cc1ccc(CNC(=O)[C@@H]2Cc3ccccc3N2S(=O)(=O)c2ccc(-c3ccccc3C(F)(F)F)cc2)cc1 [F1, reference compound] | 10.2 | 3890 | 105 | – | – | stabilization of LXRα H12 [3]: did not stabilize LXRα H12; Ki ([1]; binding affinity to LXRα): 10 nM
